Experimental data as given in publication PMC6240685, “Strong Inhibitory Effect, Low Cytotoxicity and High Plasma Stability of Steroidal Inhibitors of N-Methyl-D-Aspartate Receptors With C-3 Amide Structural Motif” (Frontiers in Pharmacology, 2018).

Columns and labels:
GABARs = assay: Inhibition of native GABAR responses in cultured hippocampal neurons; format: cell-based, rat
Method: FIGURE 8 The effect of compound 6 on peak and steady-state responses of native NMDARs, AMPARs, and GABARs. (A) Examples of traces obtained from cultured hippocampal neurons. Compound 6 (10 μM) was pre-applied in the absence of agonists followed by co-application with NMDA (100 μM), AMPA (100 μM), and GABA (5 μM) (duration of agonist and steroid application is indicated by filled and open bars, respectively). (B) Bar graph represents the mean values of relative changes in the peak (black columns) and steady-state (red columns) responses of native NMDARs, AMPARs, and GABARs recorded in the continuous presence of 10 μM compound 6. Error bars represent SD from five independent measurements. Asterisks mark significance at the level of P < 0.05 (Paired t-test). […]
Electrophysiological experiments were performed on HEK293 cells transfected with plasmids encoding rat GluN1-1a/GluN2A-D and GFP genes as described previously, ([Petrovic et al., 2005]; [Cais et al., 2008]; [Korinek et al., 2010]) or on primary hippocampal neurons prepared from P0–P1 rats, plated on collagen/poly-D-lysine-coated glass coverslips at a density of ∼50,000 cells/cm^2, and grown in Neurobasal A medium with B27 Supplement (Gibco). […] Agonist-induced responses were low-pass filtered at 2 kHz, digitally sampled at 5 kHz, and analyzed with pClamp software version 10.5 (Molecular Devices). […]

[1] = Plasma stability, rat plasma; format: in vitro ADME; conditions: rat, plasma
[2] = Plasma stability, human plasma; format: in vitro ADME; conditions: human, plasma
Method: Then, 37.8 μL of stock solution was added to 1400 μL of human plasma, maintained at 37°C. Aliquots (50 μL) withdrawn at 0, 1, 4, 8, and 24 h were analyzed by HPLC. […] The supernatant was transferred to an autosampler vial and 1 μL was injected onto LC-MS system. The samples were analyzed with an Agilent 1260 HPLC (Agilent Technologies) coupled to ESI-TOF Agilent 6530 (Agilent Technologies) with Agilent Jet Stream Technology. Samples were separated on a Waters ACQUITY UPLC CSH Phenyl-Hexyl (100 × 2.1, 130 Å, 1.7 μm) at a flow rate 0.3 ml/min. […] The mass spectrometry instrument was operated in a negative ion mode with a voltage of +3.00 kV applied to the capillary. The temperature, the flow rate of the nitrogen drying gas, the pressure of the nitrogen nebulizing gas, and the flow rate of the sheath gas were set at 325°C, 10 l/min, 40 psi, 390°C, and 11 l/min, respectively. Results are represented as a percentage of a compound remaining in spiked human plasma.

Which results are given for `C[C@@]12CCC[C@H]1[C@@H]1CC[C@@H]3C[C@H](NC(=O)[C@@H](N)CC(=O)O)CC[C@]3(C)[C@H]1CC2` [Compound 6, (S)-3-amino-4-(((3R,5R,8S,9S,10S,13S,14S)-10,13-dimethylhexadecahydro-1H-cyclopenta[a]phenanthren-3-yl)amino)-4-oxobutanoic acid]?
IC50 (GABARs; 5 μM GABA, hippocampal neurons): 17 ± 0.2 µM; inhibition of steady-state vs peak response, GABARs (GABARs; 10 μM compound present continuously, GABA 5 μM): more efficient inhibitor of tonically activated receptors at the steady–state; remaining at 8 h, 42.1 μg/mL [1]: 97%; remaining at 8 h, 42.1 μg/mL [2]: 100%
